Laboratory results as given in PMC10224004, “Modulation of Distribution and Diffusion through the Lipophilic Membrane with Cyclodextrins Exemplified by a Model Pyridinecarboxamide Derivative” (Pharmaceutics, 2023).
Where “and” joins values, the source holds several entries; their conditions need not be identical. Equal values may be shown once.

Tests used:
Assay type in all cases: physicochemical
[1] = Shake-flask distribution in the n-hexane/buffer pH 7.4 system
Protocol: (§1) Apparent distribution coefficients of the compounds were measured in two systems: 1-octanol/buffer pH 7.4 and n-hexane/buffer pH 7.4 by the shake-flask technique at 310.2 ± 0.5 K in the absence (for IPN, INZ and iNAM) and in the presence of cyclodextrins (HP-β-CD and M-β-CD) in the aqueous phase (for IPN only). The concentrations of cyclodextrins were: 0.0115 M, 0.025 M and 0.035 M. The experiments were carried out according to the literature. In brief, the following experimental procedure was performed. Aqueous buffer pH 7.4 and organic solvent (1-octanol or n-hexane) were mixed during 48 h to obtain mutually saturated phases. The stock solutions containing the drug were prepared in buffer pH 7.4 saturated with the organic solvent. Both aliquots of the aqueous stock solution and organic solvent were placed in screwed glass vials and mixed at 310.2 ± 0.5 K during 3 days. The concentrations of the stock solutions were approximately 6.0 × 10^−3 M for both systems. The volumes of the phases were 3:3 in the 1-octanol/buffer pH 7.4 systems and 6:3 and 10:3 in the n-hexane/buffer pH 7.4 systems, without and with cyclodextrins, respectively. After mixing, the equilibrium was achieved; the vials were maintained at 310.2 ± 0.5 K, and the phases were separated from each other. The drug concentrations were determined using spectrophotometer (Cary-50 Varian, Palo Alto, CA, USA, Software Version 3.00 (339)). The experiments were carried out at least four-fold with an accuracy of 2–4%. The distribution coefficients were calculated using the following equation:(6) DappOrg/buf=C2Org/buf⋅V^buf/Org/C2buf/Org⋅V^Org/buf where DappOrg/buf is the distribution coefficient calculated from the concentrations of the compounds expressed in molar scale, C2Org/buf and C2buf/Org are the molar concentrations of the drug in the mutually saturated organic solvent/buffer and buffer/organic solvent phases, respectively, and V^buf/Org and V^Org/buf are the volumes of the saturated buffer and organic solvent phases, respectively. In addition, the ΔlogD parameters were estimated taking into account the distribution coefficients both in the 1-octanol/buffer pH 7.4 and n-hexane/buffer H 7.4 systems. As Abraham et al. stated, the difference between the distribution parameters in these systems ( ΔlogD ) can be applied to assess the specific interactions including a hydrogen-bonding impact to the drug transport properties and can be calculated as follows:(7) ΔlogD=logDappoct/buf−logDapphex/buf

[2] = Shake-flask solubility in 1-octanol and dissolution thermodynamics; conditions: for Molar solubility S2 × 10^1 in 1-Octanol: value = S2 × 10^1
Protocol: (§2) The solubility of the investigated drugs in 1-octanol and n-hexane was determined by the shake-flask technique. To this end, the glass vials containing the solutions with the excess amount of the compound were placed in an air thermostat and stirred at a predetermined temperature for no less than 24 h (equilibrium state). After this, the suspensions were left for 5 h or more to precipitate the undissolved drug and centrifuged (Biofuge pico, Thermo Electron LED GmbH, Langenselbold, Germany) at a predetermined temperature during 20 min (10,000 rpm). The aliquots of the clear solutions were taken and examined via a spectrophotometer (Cary-50 Varian, Palo Alto, CA, USA, Software Version 3.00 (339)). The molar concentrations of the compounds in the solvents were calculated using calibration curves at the appropriate wavelength characteristic for each substance. The experimental results were reported as an average of at least three replicated experiments with an accuracy of 2–4%. In order to evaluate the thermodynamic parameters of the IPN dissolution in 1-octanol and n-hexane, the molar solubility ( S2 ) was recalculated to the mole fraction ( X2 ) by the equation:(1) X2=M2S2/S2(M1−M2)+1000ρ, where M1 and M2 are the molar masses of IPN and organic solvent, respectively, and ρ (g∙cm^−3) is the density of the pure solvents. The linear functions describing the temperature dependences of the solubility within the temperature interval from 293.2 ± 0.5 K to 313.2 ± 0.5 K for both organic solvents were derived:(2) lnX2=A+B/T
(§3) The apparent solution enthalpies ΔHsol0 were determined by the van’t Hoff equation:(3) ∂(lnX2)/∂T=ΔHsol0/RT^2
(§4) The apparent dissolution Gibbs energies ( ΔGsol ) and entropies ( ΔSsol ) were calculated at a standard temperature of 298.2 K and 310.2 K:(4) ΔGsol298.2/310.2=−RT(lnX2298.2/310.2) (5) ΔGsol298.2/310.2=ΔHsol0−TΔSsol298.2/310.2 where R is the universal gas constant.

[3] = ΔlogD parameter (logDapp oct/buf − logDapp hex/buf); conditions: 310.2 K; pH 7.4; cyclodextrin in buffer phase as in the label
Protocol: as §1, with “The volumes of the phases were 3:3 in the 1-octanol/buffer pH 7.4 systems and 6:3 and 10:3 in the n-hexane/buffer pH 7.4 systems, without and with cyclodextrins, respectively. After mixing, the equilibrium was achieved; the vials were maintained at 310.2 ± 0.5 K, and the phases were separated from each other.” left out, “The experiments were carried out at least four-fold with an accuracy of 2–4%.” left out, “In addition, the ΔlogD parameters were estimated taking into account the distribution coefficients both in the 1-octanol/buffer pH 7.4 and n-hexane/buffer H 7.4 systems.” left out

[4] = Shake-flask distribution in the 1-octanol/buffer pH 7.4 system
Protocol: as §1

[5] = Thermodynamic functions of the hypothetical n-hexane → 1-octanol transferring
Protocol: as §4
The following conclusions can be derived from Table 3. The dissolution process is more favorable in 1-octanol as compared to n-hexane. In both solvents it is determined by the enthalpy, but the difference between the enthalpy and entropy contributions is not essential (especially in 1-octanol). The greater positive enthalpy term is a driving force of the unfavorable dissolution processes in these two solvents. A more than two-fold difference ΔHsol > TΔSsol exists in n-hexane, and a favorable positive entropy value is not enough to overlap the enthalpy one. From the dissolution thermodynamic functions, the hypothetical transfer n-hexane→1-octanol simulating the blood-brain penetration can be disclosed. As follows from Table 3, the transferring is favorable (negative ΔGtr value), in that the lower temperature facilitates the process. The hypothetical transition from n-hexane to 1-octanol is driven and determined by the negative enthalpy (~80%). A small negative entropy contribution— TΔStr indicates some ordering of the system upon the movement of the IPN molecules from n-hexane to 1-octanol.

[6] = Shake-flask solubility in n-hexane and dissolution thermodynamics; conditions: for Molar solubility S2 × 10^3 in n-Hexane: value = S2 × 10^3
Protocol: as §2, §3, §4

[7] = 310.2 K, cyclodextrin in buffer phase as in the label
[8] = V(oct):V(buf)= 3:3, molar concentration × 10^3

In the case of `CC(C)NNC(=O)c1ccncc1` [IPN, N′-isopropyl isonicotinic hydrazide], the logDapphex/buff [1, 7] is reported as −2.907, the “Dapphex/buff ·10^4” value ([1]; 310.2 K, value = D·10^4, cyclodextrin in buffer phase as in the label) is reported as 12.400 ± 0.191 ·10^4 and the “Molar concentration C2 buf/hex ∙10^3 (aqueous phase)” value ([1]; V(hex):V(buf)= 6:3 without and 10:3 with cyclodextrins, molar concentration × 10^3) is reported as 6.46 ∙10^3. The “Molar concentration C2 hex/buf ∙10^5 (organic phase)” value ([1]; V(hex):V(buf)= 6:3 without and 10:3 with cyclodextrins, molar concentration × 10^5) was 1.60 ∙10^5, the TΔSsol298.2 ([2]; 1-octanol, 298.2 K) was 3.42 ± 0.096 kcal/mol and the ΔGsol298.2 ([2]; 1-octanol, 298.2 K) was 1.48 ± 0.024 kcal/mol. The ζHsol ([2]; 1-octanol, 298.2 K (first value of cell)) was 58.9%, the ΔHsol298.2/310.2 ([2]; 1-octanol, 298.2 K and 310.2 K) was 4.9 ± 0.048 kcal/mol and the TΔSsol310.2 ([2]; 1-octanol, 310.2 K) was 3.56 ± 0.096 kcal/mol. For the same molecule, the ΔGsol310.2 ([2]; 1-octanol, 310.2 K) was 1.34 ± 0.024 kcal/mol, the ζHsol ([2]; 1-octanol, 310.2 K (second value of cell)) was 57.9% and the “solubility higher in 1-octanol than in n-hexane” value ([2]; 310.2 K, ratio of molar solubilities) was 338 fold. The “Molar solubility S2 × 10^1 in 1-Octanol” value ([2]; T 293.2 K) was 4.44 ± 0.09 × 10^1 (M), the “Molar solubility S2 × 10^1 in 1-Octanol” value ([2]; T 298.2 K) was 5.06 ± 0.06 × 10^1 (M) and the “Molar solubility S2 × 10^1 in 1-Octanol” value ([2]; T 303.2 K) was 5.73 ± 0.11 × 10^1 (M). For the same molecule, the “Molar solubility S2 × 10^1 in 1-Octanol” value ([2]; T 310.2 K) was 6.86 ± 0.18 × 10^1 (M), the ΔlogD [3] was 3.33 and the Dappoct/buff [4, 7] was 2.651 ± 0.093. For the same molecule, the logDappoct/buff [4, 7] was 0.423 ± 0.015 and 0.423, the “Molar concentration C2 buf/oct ∙10^3 (aqueous phase)” value [4, 8] was 1.69 ∙10^3 and the “Molar concentration C2 oct/buf ∙10^3 (organic phase)” value [4, 8] was 4.48 ∙10^3. It also gave a TΔStr298.2 ([5]; 298.2 K) of -0.884 kcal/mol, a ΔGtr298.2 ([5]; 298.2 K) of -3.78 kcal/mol and a ζHtr ([5]; 298.2 K (first value of cell)) of 84.1%. The ΔHtr298.2/310.2 ([5]; 298.2 K and 310.2 K) was -4.66 kcal/mol, the TΔStr310.2 ([5]; 310.2 K) was -0.932 kcal/mol and the ΔGtr310.2 ([5]; 310.2 K) was -3.73 kcal/mol. The ζHtr ([5]; 310.2 K (second value of cell)) was 83.3%, the “Molar solubility S2 × 10^3 in n-Hexane” value ([6]; T 293.2 K) was 0.83 ± 0.03 × 10^3 (M) and the “Molar solubility S2 × 10^3 in n-Hexane” value ([6]; T 298.2 K) was 1.07 ± 0.02 × 10^3 (M). For the same molecule, the “Molar solubility S2 × 10^3 in n-Hexane” value ([6]; T 303.2 K) was 1.42 ± 0.03 × 10^3 (M), the “Molar solubility S2 × 10^3 in n-Hexane” value ([6]; T 310.2 K) was 2.03 ± 0.04 × 10^3 (M) and the TΔSsol298.2 ([6]; n-hexane, 298.2 K) was 4.3 ± 0.19 kcal/mol. The ΔGsol298.2 ([6]; n-hexane, 298.2 K) was 5.26 ± 0.096 kcal/mol, the ζHsol ([6]; n-hexane, 298.2 K (first value of cell)) was 69.0% and the ΔHsol298.2/310.2 ([6]; n-hexane, 298.2 K and 310.2 K) was 9.56 ± 0.22 kcal/mol. It also gave a TΔSsol310.2 ([6]; n-hexane, 310.2 K) of 4.49 ± 0.19 kcal/mol, a ΔGsol310.2 ([6]; n-hexane, 310.2 K) of 5.07 ± 0.096 kcal/mol and a ζHsol ([6]; n-hexane, 310.2 K (second value of cell)) of 68.0%.
